Experimental data published in the kinase profiling compilation of Christmann-Franck et al. (2016).

Key:
Assay in all cases: radiometric filter-binding kinase assay, Kinase HotSpot
Settings in all cases: compound 0.5 µM; ATP 10 µM
ABL1 (human) = ABL1 (human) (UniProt P00519)
ABL2 (human) = ABL2 (human) (UniProt P42684)
BRAF (human) = BRAF (human) (UniProt P15056)
CAMK2D (human) = CAMK2D (human) (UniProt Q13557)
CDK4 CCND1 (human) = CDK4 CCND1 (human) (UniProt P24385+P11802)
CHEK1 (human) = CHEK1 (human) (UniProt O14757)
CLK4 (human) = CLK4 (human) (UniProt Q9HAZ1)
CSNK1A1 (human) = CSNK1A1 (human) (UniProt P48729)
CSNK1G3 (human) = CSNK1G3 (human) (UniProt Q9Y6M4)
CSNK2A2 (human) = CSNK2A2 (human) (UniProt P19784)
DYRK1B (human) = DYRK1B (human) (UniProt Q9Y463)
DYRK4 (human) = DYRK4 (human) (UniProt Q9NR20)
EPHB1 (human) = EPHB1 (human) (UniProt P54762)
IKBKB (human) = IKBKB (human) (UniProt O14920)
IRAK1 (human) = IRAK1 (human) (UniProt P51617)
[1] = target: JAK1 JH1 catalytic (human) (UniProt P23458)
JAK2 JH1 JH2 (human) = JAK2 JH1 JH2 (human) (UniProt O60674)
MAP3K11 (human) = MAP3K11 (human) (UniProt Q16584)
MAPK10 (human) = MAPK10 (human) (UniProt P53779)
MAPK11 (human) = MAPK11 (human) (UniProt Q15759)
MAPK3 (human) = MAPK3 (human) (UniProt P27361)
MAPK8 (human) = MAPK8 (human) (UniProt P45983)
MAPKAPK5 (human) = MAPKAPK5 (human) (UniProt Q8IW41)
MARK4 (human) = MARK4 (human) (UniProt Q96L34)
NUAK1 (human) = NUAK1 (human) (UniProt O60285)
PAK4 (human) = PAK4 (human) (UniProt O96013)
PAK7 (human) = PAK7 (human) (UniProt Q9P286)
PIM3 (human) = PIM3 (human) (UniProt Q86V86)
PRKCB2 (human) = PRKCB2 (human) (UniProt P05771)
PRKCD (human) = PRKCD (human) (UniProt Q05655)
PRKCH (human) = PRKCH (human) (UniProt P24723)
PRKD2 (human) = PRKD2 (human) (UniProt Q9BZL6)
ROCK1 (human) = ROCK1 (human) (UniProt Q13464)
ROCK2 (human) = ROCK2 (human) (UniProt O75116)
ROS1 (human) = ROS1 (human) (UniProt P08922)
SIK2 (human) = SIK2 (human) (UniProt Q9H0K1)
STK17A (human) = STK17A (human) (UniProt Q9UEE5)
STK39 (human) = STK39 (human) (UniProt Q9UEW8)
TBK1 (human) = TBK1 (human) (UniProt Q9UHD2)
TSSK2 (human) = TSSK2 (human) (UniProt Q96PF2)

Sequence of TBK1 (human) (Q9UHD2 whole entry, looked up): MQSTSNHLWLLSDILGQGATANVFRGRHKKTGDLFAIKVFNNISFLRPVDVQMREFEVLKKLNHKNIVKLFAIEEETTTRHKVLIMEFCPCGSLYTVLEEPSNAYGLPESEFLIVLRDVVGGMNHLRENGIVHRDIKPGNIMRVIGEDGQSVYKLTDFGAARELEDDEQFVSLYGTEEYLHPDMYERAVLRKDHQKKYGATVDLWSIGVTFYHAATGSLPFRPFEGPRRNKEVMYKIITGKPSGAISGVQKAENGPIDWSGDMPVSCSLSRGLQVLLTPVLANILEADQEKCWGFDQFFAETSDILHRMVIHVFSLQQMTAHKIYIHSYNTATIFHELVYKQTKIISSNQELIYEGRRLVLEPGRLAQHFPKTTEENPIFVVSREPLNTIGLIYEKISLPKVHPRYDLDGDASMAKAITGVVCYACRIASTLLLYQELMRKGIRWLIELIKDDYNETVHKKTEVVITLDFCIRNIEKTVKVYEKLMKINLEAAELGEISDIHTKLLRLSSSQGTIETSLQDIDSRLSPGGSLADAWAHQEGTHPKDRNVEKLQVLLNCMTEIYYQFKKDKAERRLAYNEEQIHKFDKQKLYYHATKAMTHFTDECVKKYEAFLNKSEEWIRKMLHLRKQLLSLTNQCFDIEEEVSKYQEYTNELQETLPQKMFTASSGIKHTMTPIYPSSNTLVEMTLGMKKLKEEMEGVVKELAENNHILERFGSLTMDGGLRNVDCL
Sequence of JAK2 JH1 JH2 (human) (O60674 whole entry, looked up): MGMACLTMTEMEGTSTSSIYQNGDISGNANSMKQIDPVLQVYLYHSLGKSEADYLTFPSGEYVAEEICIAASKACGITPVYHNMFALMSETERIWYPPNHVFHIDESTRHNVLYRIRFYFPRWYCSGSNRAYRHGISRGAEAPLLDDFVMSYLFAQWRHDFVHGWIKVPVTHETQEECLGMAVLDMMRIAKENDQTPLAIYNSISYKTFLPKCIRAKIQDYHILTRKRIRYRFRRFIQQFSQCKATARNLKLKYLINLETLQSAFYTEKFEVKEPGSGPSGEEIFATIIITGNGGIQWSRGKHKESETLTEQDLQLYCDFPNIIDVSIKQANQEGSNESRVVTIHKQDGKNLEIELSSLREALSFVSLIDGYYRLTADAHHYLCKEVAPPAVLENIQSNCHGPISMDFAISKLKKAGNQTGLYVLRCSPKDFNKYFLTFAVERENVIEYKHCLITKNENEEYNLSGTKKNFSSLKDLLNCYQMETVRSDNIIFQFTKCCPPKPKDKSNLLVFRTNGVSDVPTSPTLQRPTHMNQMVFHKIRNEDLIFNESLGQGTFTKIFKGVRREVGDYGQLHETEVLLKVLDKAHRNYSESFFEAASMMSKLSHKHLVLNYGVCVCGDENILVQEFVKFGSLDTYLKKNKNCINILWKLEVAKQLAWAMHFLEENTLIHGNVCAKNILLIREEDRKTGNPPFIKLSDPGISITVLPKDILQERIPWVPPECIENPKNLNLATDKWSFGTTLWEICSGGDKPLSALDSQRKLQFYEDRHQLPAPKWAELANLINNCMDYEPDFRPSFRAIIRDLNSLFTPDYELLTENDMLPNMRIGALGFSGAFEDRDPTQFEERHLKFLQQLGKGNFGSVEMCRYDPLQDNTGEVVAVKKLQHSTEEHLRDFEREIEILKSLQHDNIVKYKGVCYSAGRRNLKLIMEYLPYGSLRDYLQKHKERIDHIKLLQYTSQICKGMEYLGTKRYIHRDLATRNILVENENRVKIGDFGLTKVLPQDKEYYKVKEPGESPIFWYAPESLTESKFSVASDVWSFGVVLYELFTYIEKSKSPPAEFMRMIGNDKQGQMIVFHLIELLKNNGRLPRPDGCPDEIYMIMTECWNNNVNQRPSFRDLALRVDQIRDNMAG
Sequence of MAPK10 (human) (P53779 whole entry, looked up): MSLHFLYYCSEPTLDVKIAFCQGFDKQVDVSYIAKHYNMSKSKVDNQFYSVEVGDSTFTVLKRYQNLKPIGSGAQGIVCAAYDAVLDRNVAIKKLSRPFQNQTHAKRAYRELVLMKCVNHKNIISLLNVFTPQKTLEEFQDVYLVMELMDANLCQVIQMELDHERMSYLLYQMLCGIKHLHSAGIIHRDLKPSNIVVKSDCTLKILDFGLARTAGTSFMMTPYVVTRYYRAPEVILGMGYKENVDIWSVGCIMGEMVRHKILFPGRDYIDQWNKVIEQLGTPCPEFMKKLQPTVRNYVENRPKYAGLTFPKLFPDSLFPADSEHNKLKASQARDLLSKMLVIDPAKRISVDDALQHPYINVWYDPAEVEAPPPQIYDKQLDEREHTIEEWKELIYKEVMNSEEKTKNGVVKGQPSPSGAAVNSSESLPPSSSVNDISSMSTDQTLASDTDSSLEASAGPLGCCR
Sequence of STK17A (human) (Q9UEE5 whole entry, looked up): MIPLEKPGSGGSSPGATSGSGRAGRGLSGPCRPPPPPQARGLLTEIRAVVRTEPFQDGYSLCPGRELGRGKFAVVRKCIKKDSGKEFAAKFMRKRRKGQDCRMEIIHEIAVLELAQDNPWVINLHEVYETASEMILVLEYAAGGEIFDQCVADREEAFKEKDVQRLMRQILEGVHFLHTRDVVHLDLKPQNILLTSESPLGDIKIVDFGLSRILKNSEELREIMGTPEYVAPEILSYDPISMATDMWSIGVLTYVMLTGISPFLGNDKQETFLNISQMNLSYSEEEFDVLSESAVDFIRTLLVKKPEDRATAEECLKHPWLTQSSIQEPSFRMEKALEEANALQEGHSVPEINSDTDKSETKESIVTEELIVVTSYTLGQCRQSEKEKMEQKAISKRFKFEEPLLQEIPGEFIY
Sequence of SIK2 (human) (Q9H0K1 whole entry, looked up): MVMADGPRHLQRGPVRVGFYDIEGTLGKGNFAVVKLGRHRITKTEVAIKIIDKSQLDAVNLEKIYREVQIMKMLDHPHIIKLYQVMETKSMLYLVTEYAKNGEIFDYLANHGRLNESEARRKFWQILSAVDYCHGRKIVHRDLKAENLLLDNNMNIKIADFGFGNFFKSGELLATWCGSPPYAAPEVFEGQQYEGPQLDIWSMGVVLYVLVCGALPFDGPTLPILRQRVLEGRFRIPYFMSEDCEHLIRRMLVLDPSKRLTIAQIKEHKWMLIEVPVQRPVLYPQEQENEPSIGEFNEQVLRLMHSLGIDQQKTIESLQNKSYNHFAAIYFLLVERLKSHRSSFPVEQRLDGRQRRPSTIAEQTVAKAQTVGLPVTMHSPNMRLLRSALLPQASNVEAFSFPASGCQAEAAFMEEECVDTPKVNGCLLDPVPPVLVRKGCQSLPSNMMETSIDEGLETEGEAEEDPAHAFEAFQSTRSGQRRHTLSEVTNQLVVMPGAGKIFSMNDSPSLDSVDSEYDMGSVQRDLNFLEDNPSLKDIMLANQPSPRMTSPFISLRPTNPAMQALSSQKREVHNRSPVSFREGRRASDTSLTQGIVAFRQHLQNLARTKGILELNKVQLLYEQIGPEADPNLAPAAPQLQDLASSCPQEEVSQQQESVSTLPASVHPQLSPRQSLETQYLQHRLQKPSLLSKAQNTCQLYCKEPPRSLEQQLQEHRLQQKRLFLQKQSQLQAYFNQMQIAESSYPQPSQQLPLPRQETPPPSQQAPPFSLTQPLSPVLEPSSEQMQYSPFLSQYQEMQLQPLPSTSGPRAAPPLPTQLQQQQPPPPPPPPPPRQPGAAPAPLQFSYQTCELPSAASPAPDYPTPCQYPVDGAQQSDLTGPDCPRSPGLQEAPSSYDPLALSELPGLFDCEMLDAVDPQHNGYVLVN
Sequence of MAPK8 (human) (P45983 whole entry, looked up): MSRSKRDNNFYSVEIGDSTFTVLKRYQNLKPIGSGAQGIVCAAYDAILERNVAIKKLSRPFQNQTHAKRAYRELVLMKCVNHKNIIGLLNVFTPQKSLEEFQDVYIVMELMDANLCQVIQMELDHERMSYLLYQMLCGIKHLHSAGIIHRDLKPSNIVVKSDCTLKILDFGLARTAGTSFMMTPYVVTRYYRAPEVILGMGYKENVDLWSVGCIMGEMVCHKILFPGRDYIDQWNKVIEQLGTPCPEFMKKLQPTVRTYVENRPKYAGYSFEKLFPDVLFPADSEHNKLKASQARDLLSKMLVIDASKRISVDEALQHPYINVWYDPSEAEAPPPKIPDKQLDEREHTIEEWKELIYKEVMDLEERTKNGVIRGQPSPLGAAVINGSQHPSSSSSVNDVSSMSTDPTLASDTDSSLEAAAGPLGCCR
Sequence of CSNK1G3 (human) (Q9Y6M4 whole entry, looked up): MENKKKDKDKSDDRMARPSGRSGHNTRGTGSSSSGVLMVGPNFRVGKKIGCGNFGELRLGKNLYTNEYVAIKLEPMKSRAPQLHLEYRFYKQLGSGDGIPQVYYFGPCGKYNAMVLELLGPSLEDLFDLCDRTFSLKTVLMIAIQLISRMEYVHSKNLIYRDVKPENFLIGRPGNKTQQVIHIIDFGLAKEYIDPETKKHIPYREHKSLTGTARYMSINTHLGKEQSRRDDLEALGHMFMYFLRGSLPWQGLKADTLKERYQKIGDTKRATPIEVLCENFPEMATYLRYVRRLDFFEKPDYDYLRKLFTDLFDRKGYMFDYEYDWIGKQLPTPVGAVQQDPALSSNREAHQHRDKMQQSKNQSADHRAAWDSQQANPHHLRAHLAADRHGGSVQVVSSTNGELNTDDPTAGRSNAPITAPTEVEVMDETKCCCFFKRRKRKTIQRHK

Compound	residual activity (ABL1 (human)) [%]	residual activity (ABL2 (human)) [%]	residual activity (BRAF (human)) [%]	residual activity (CAMK2D (human)) [%]	residual activity (CDK4 CCND1 (human)) [%]	residual activity (CHEK1 (human)) [%]	residual activity (CLK4 (human)) [%]	residual activity (CSNK1A1 (human)) [%]	residual activity (CSNK1G3 (human)) [%]	residual activity (CSNK2A2 (human)) [%]	residual activity (DYRK1B (human)) [%]	residual activity (DYRK4 (human)) [%]	residual activity (EPHB1 (human)) [%]	residual activity (IKBKB (human)) [%]	residual activity (IRAK1 (human)) [%]	residual activity [1] [%]	residual activity (JAK2 JH1 JH2 (human)) [%]	residual activity (MAP3K11 (human)) [%]	residual activity (MAPK10 (human)) [%]	residual activity (MAPK11 (human)) [%]	further results
N#CC(C#N)=C(N)/C(C#N)=C/c1ccc(O)cc1	103	94.9	90.1	91.1	100	98.3	101	85	100	102	101	107	88.3	102	123	99.4	102	94.8	98.8	100	residual activity (MAPK3 (human)): 101%; residual activity (MAPK8 (human)): 100%; residual activity (MAPKAPK5 (human)): 94.2%; residual activity (MARK4 (human)): 94.3%; residual activity (NUAK1 (human)): 92.3%; residual activity (PAK4 (human)): 85.6%; residual activity (PAK7 (human)): 94.5%; residual activity (PIM3 (human)): 91.3%; residual activity (PRKCB2 (human)): 111%; residual activity (PRKCD (human)): 93.7%; residual activity (PRKCH (human)): 90.3%; residual activity (PRKD2 (human)): 100%; residual activity (ROCK1 (human)): 100%; residual activity (ROCK2 (human)): 98.3%; residual activity (ROS1 (human)): 97.1%; residual activity (SIK2 (human)): 87.7%; residual activity (STK17A (human)): 72.8%; residual activity (STK39 (human)): 90.3%; residual activity (TBK1 (human)): 91.1%; residual activity (TSSK2 (human)): 94.6%
CCOC(=O)c1c(C)[nH]c(/C=C2\C(=O)Nc3ccccc32)c1C	95.4	88.5	96.7	93.9	103	89.4	94.3	98.6	97.9	94.7	105	99.6	97.5	101	111	97.1	96.7	47	86.8	97.5	residual activity (MAPK3 (human)): 101%; residual activity (MAPK8 (human)): 106%; residual activity (MAPKAPK5 (human)): 93.9%; residual activity (MARK4 (human)): 99.6%; residual activity (NUAK1 (human)): 62.3%; residual activity (PAK4 (human)): 71.8%; residual activity (PAK7 (human)): 83.9%; residual activity (PIM3 (human)): 75.1%; residual activity (PRKCB2 (human)): 91.5%; residual activity (PRKCD (human)): 91.6%; residual activity (PRKCH (human)): 94%; residual activity (PRKD2 (human)): 97.1%; residual activity (ROCK1 (human)): 99.1%; residual activity (ROCK2 (human)): 94.3%; residual activity (ROS1 (human)): 99.1%; residual activity (SIK2 (human)): 99.9%; residual activity (STK17A (human)): 81.4%; residual activity (STK39 (human)): 85.1%; residual activity (TBK1 (human)): 70.5%; residual activity (TSSK2 (human)): 95.9%
Nc1cccc(-c2cc3c(Oc4cccc(O)c4)ncnc3[nH]2)c1	5.5	1.4	53.2	99.8	88.7	66.2	104	61.8	92.6	96.5	100	101	40	90.8	91.4	106	85.4	52.4	89.4	108	residual activity (MAPK3 (human)): 86.9%; residual activity (MAPK8 (human)): 94.4%; residual activity (MAPKAPK5 (human)): 125%; residual activity (MARK4 (human)): 68.8%; residual activity (NUAK1 (human)): 37%; residual activity (PAK4 (human)): 99.8%; residual activity (PAK7 (human)): 86.9%; residual activity (PIM3 (human)): 129%; residual activity (PRKCB2 (human)): 97.5%; residual activity (PRKCD (human)): 95.7%; residual activity (PRKCH (human)): 90%; residual activity (PRKD2 (human)): 81.7%; residual activity (ROCK1 (human)): 94.1%; residual activity (ROCK2 (human)): 94.5%; residual activity (ROS1 (human)): 39.7%; residual activity (SIK2 (human)): 69.4%; residual activity (STK17A (human)): 93.7%; residual activity (STK39 (human)): 119%; residual activity (TBK1 (human)): 92.9%; residual activity (TSSK2 (human)): 95.6%
